Experimental data reported in ChEMBL document CHEMBL3392969, “SAR156497, an exquisitely selective inhibitor of aurora kinases” (J Med Chem, 2015).

Columns and labels:
in vitro [1] = details: mouse, liver microsomes
Description: Metabolic stability mouse liver microsomes assessed as stability at 5 uM by LC/MS-MS analysis

Aurora kinase B = Aurora kinase B (Homo sapiens, UniProt Q96GD4)
Description: Inhibition of poly-histidine tagged full length recombinant aurora B (unknown origin) assessed as phosphorylation of NuMA-histidine substrate by scintillation counting analysis

in vitro [2] = details: human, liver microsomes
Description: Metabolic stability human liver microsomes assessed as stability at 5 uM by LC/MS-MS analysis

Cytochrome P450 3A4 [3] = biological target: T1, Cytochrome P450 3A4 (Homo sapiens, UniProt P08684)
Description: Inhibition of human recombinant CYP3A4 co-expressed with human P450 reductase/human b5 reductase using 7-benzyloxyquinoline substrate

in vivo [4] = details: mouse
Description: Volume of distribution in mouse

Cytochrome P450 3A4 [5] = biological target: T1, Cytochrome P450 3A4; remark: listed apart in the source
Description: Inhibition of human recombinant CYP3A4 in liver microsomes by mechanism based inhibition assay

in vitro [6] = details: human, Caco-2
Description: Permeability across human Caco2 cells

PBMC = assay: cells; details: Homo sapiens, 96 h
Description: Cytotoxicity against human hematological tumor PBMC assessed as viability after 96 hrs by MTS assay

[7] = Antitumor activity against human HCT116 cells xenografted in SCID mouse assessed as tumor growth at 25 mg/kg, sc after 24 hrs infusion schedule; details: route subcutaneous
in vivo [8] = details: mouse; remark: listed apart in the source
[9] = Antitumor activity against human HCT116 cells xenografted in SCID mouse assessed as tumor growth at 25 mg/kg/day, sc after 48 hrs infusion schedule; details: route subcutaneous
[10] = Antitumor activity against human HCT116 cells xenografted in SCID mouse assessed as decrease in […] positive cells at 25 mg/kg/day, sc after 48 hrs infusion schedule; details: HCT-116, sc
in vivo [11] = details: mouse, po
Description: Oral bioavailability in mouse

[12] = Antitumor activity against human HCT116 cells xenografted in SCID mouse assessed as decrease in […] positive cells at 50 mg/kg, sc after 24 hrs infusion schedule; details: HCT-116, sc
HeLa [13] = assay: cells; details: Homo sapiens
Description: (§1) Antiproliferative activity against human HeLa cells assessed as 14C-thymidine incorporation by Micro-Beta radioactivity counting analysis

Aurora kinase C = biological target: T2, Aurora kinase C (Homo sapiens, UniProt Q9UQB9)
T2 sequence (Q9UQB9 whole entry): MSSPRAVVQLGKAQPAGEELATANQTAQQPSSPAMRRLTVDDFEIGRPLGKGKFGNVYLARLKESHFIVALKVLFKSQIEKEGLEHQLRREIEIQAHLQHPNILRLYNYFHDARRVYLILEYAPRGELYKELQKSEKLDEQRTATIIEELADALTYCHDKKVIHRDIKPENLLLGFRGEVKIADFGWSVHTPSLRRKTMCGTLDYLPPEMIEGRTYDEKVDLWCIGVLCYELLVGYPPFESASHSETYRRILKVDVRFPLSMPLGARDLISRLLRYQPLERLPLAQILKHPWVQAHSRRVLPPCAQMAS
Description: Inhibition of poly-histidine tagged full length recombinant aurora C (unknown origin) assessed as phosphorylation of NuMA-histidine substrate by scintillation counting analysis

[14] = Antitumor activity against human HCT116 cells xenografted in SCID mouse assessed as decrease in […] positive cells at 25 mg/kg, sc after 24 hrs infusion schedule; details: HCT-116, sc
[15] = Plasma concentration in human HCT116 cells xenografted in SCID mouse at 50 mg/kg/day, sc infusion after 8 hrs
HeLa [16] = system: HeLa
Description: as §1

T1 sequence (P08684 whole entry): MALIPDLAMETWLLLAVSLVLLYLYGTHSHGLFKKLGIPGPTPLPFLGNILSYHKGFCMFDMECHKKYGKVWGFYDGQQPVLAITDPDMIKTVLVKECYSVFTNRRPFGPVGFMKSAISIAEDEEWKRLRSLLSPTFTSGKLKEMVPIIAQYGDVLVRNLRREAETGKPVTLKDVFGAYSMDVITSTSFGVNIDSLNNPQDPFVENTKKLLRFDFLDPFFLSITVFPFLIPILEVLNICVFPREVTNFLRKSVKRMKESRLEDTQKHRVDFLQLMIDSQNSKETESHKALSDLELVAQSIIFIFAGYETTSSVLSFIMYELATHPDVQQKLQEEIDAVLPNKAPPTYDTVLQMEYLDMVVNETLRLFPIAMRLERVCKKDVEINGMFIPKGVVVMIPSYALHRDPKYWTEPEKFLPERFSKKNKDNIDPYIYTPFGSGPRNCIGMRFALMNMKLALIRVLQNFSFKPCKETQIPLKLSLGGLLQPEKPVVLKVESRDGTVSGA
Sequence of Aurora kinase B (Q96GD4 whole entry): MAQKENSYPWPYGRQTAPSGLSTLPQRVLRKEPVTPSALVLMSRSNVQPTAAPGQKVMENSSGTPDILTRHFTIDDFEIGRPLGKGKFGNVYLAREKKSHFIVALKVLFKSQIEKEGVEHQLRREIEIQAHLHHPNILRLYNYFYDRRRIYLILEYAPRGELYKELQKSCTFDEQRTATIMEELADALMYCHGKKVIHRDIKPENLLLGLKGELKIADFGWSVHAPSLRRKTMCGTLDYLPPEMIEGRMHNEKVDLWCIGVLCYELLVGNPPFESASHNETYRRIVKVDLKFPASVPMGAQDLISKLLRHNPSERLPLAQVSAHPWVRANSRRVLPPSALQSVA

SMILES	remaining at 5 µM (in vitro [1]) [%]	IC50 (Aurora kinase B) [µM]	remaining at 5 µM (in vitro [2]) [%]	IC50 (HeLa [13]) [µM]	also measured
CCOC(=O)c1[nH]cc2c1NC1=C(C(=O)CCC1)C2c1ccc(Sc2nc3c(F)cc(F)cc3[nH]2)o1 (stereo not given)	36	0.004	66		IC50 (Cytochrome P450 3A4 [3]): 1 µM
CCOC(=O)c1[nH]cc2c1NC1=C(C(=O)CN(C(=O)CN)C1)[C@H]2c1ccc(Sc2nc3c(F)cccc3[nH]2)o1	17	0.002	< 40		
CCOC(=O)c1[nH]cc2c1NC1=C(C(=O)CCC1)[C@H]2c1cccc(Oc2nc3ccccc3[nH]2)c1	32	0.001	53	0.067	Vd (in vivo [4]): 0.14 L/kg; Ki (Cytochrome P450 3A4 [5]): 0.99 µM; Papp (in vitro [6]): 60 nm/s; IC50 (PBMC): > 10 µM; Activity [7]: 59%; half-life (in vivo [8]): 2.4 h; Activity [9]: 19%; inhibition in vivo at 25 mg/kg/day [10]: 16%; bioavailability (in vivo [11]): 64%; inhibition in vivo at 50 mg/kg [12]: 47%; IC50 (Aurora kinase C): 0.003 µM; inhibition in vivo at 25 mg/kg [14]: 19%; concentration at 8 h [15]: 63 µM
COc1ccc(Oc2cccc(C3C4=C(CNCC4=O)Nc4n[nH]cc43)c2)cc1 (racemic)				> 10	
O=C1CCCC2=C1C(c1ccc(Sc3nc4ccccc4[nH]3)o1)c1n[nH]cc1N2 (racemic)		0.5		> 10	
NC(=O)c1[nH]nc2c1NC1=C(C(=O)CCC1)C2c1ccc(Sc2nc3ccccc3[nH]2)o1 (racemic)		0.019		> 10	
CCOC(=O)c1[nH]cc2c1NC1=C(C(=O)CCC1)C2c1ccc(Sc2nc3ccccc3[nH]2)o1 (racemic)					IC50 (HeLa [16]): 0.015 µM
CCOC(=O)c1[nH]cc2c1NC1=C(C(=O)CNC1)C2c1ccc(Sc2nc3ccccc3[nH]2)o1 (racemic)	60	0.002	66		IC50 (Cytochrome P450 3A4 [3]): 0.17 µM
CCOC(=O)c1[nH]cc2c1NC1=C(C(=O)CCC1)C2c1ccc(Sc2nc3cc(F)ccc3[nH]2)o1 (racemic)	77		73		IC50 (Cytochrome P450 3A4 [3]): 12 µM
CCOC(=O)c1[nH]cc2c1NC1=C(C(=O)CCC1)C2c1ccc(Sc2nc3c(F)c(F)c(F)cc3[nH]2)o1 (racemic)	22		46		
CCOC(=O)c1[nH]cc2c1NC1=C(C(=O)CCC1)C2c1ccc(Sc2nc3cc(Cl)ccc3[nH]2)o1 (racemic)	88		90		
CCOC(=O)c1[nH]cc2c1NC1=C(C(=O)CCC1)C2c1ccc(Sc2nc3c(O)cccc3[nH]2)o1 (racemic)	37	0.008	40		IC50 (Cytochrome P450 3A4 [3]): 0.49 µM
CCOC(=O)c1[nH]cc2c1NC1=C(C(=O)CCC1)C2c1ccc(Sc2nc3c(N)cccc3[nH]2)o1 (racemic)	35	0.025	23		
CCOC(=O)c1[nH]cc2c1NC1=C(C(=O)CN(CC)C1)C2c1ccc(Sc2nc3ccccc3[nH]2)o1 (racemic)	99	0.006	65		
CCOC(=O)c1[nH]cc2c1NC1=C(C(=O)CNC1)C2c1ccc(Sc2nc3cccc(Cl)c3[nH]2)o1 (racemic)		0.005			
CCOC(=O)c1[nH]cc2c1NC1=C(C(=O)CN(C(=O)OC(C)(C)C)C1)C2c1ccc(Sc2nc3ccccc3[nH]2)o1 (racemic)		0.026			
CCOC(=O)c1[nH]cc2c1NC1=C(C(=O)CN(Cc3ccccc3)C1)C2c1ccc(Sc2nc3ccccc3[nH]2)o1 (racemic)		0.008			
CCOC(=O)c1[nH]cc2c1NC1=C(C(=O)CCC1)C2c1cnc(Sc2nc3ccccc3[nH]2)s1 (racemic)				> 10	
CCOC(=O)c1[nH]cc2c1NC1=C(C(=O)CCC1)C2c1cccc(Sc2nc3ccccc3[nH]2)n1 (racemic)		0.007		4.4	
CCOC(=O)c1[nH]cc2c1NC1=C(C(=O)CCC1)C2c1cccc(Oc2nc3ccccc3[nH]2)c1 (racemic)		0.012		0.2	
O=C1CCCC2=C1C(c1ccc(Sc3nc4ccccc4[nH]3)o1)c1c[nH]cc1N2 (single isomer, unassigned; (+))		0.127		3.7	
CCOC(=O)c1[nH]cc2c1NC1=C(C(=O)CCC1)C2c1ccc(Sc2nc3ccccc3[nH]2)o1 (single isomer, unassigned; (+))	83		69		IC50 (HeLa [16]): 0.016 µM; IC50 (Cytochrome P450 3A4 [3]): 0.19 µM
O=C1CCCC2=C1C(c1ccc(Sc3nc4ccccc4[nH]3)o1)c1c[nH]c(C(=O)O)c1N2 (single isomer, unassigned; (+))		0.016		8.75	
CCOC(=O)c1[nH]cc2c1NC1=C(C(=O)CCC1)C2c1ccc(Sc2nc3ccccc3[nH]2)o1 (single isomer, unassigned; (-))					IC50 (HeLa [16]): 7 µM

More lines, main results first:

remaining at 5 µM (in vitro [1]) [%]	IC50 (Aurora kinase B) [µM]	remaining at 5 µM (in vitro [2]) [%]	IC50 (HeLa [13]) [µM]	SMILES	also measured
30	0.004	65		CCOC(=O)c1[nH]cc2c1NC1=C(C(=O)CN(C(=O)CN)C1)[C@H]2c1ccc(Sc2nc3ccccc3[nH]2)o1	IC50 (Cytochrome P450 3A4 [3]): 0.5 µM
	0.002		1.5	CCOC(=O)c1[nH]cc2c1NC1=C(C(=O)CCC1)C2c1cc(Sc2nc3ccccc3[nH]2)cs1 (racemic)	
			> 10	O=C1CNCC2=C1C(c1cccc(Oc3cc(Cl)cc(Cl)c3)c1)c1c[nH]nc1N2 (racemic)	
			> 10	O=C1CNCC2=C1C(c1cccc(Oc3ccccc3)c1)c1c[nH]nc1N2 (racemic)	
			> 10	O=C1CNCC2=C1C(c1cccc(Oc3ccc(Cl)cc3)c1)c1c[nH]nc1N2 (racemic)	
			> 10	O=C1CNCC2=C1C(c1cccc(Oc3ccc(Cl)c(Cl)c3)c1)c1c[nH]nc1N2 (racemic)	
			> 10	O=C1CNCC2=C1C(c1ccc(Sc3nc4ccccc4[nH]3)o1)c1c[nH]nc1N2 (racemic)	
	0.005		0.3	O=C1CCCC2=C1C(c1ccc(Sc3nc4ccccc4[nH]3)o1)c1cn[nH]c1N2 (racemic)	
	0.033		7.7	CCOC(=O)c1[nH]nc2c1NC1=C(C(=O)CCC1)C2c1ccc(Sc2nc3ccccc3[nH]2)o1 (racemic)	
			> 10	Nc1nc(O)c2c(n1)NC1=C(C(=O)CCC1)C2c1ccc(Sc2nc3ccccc3[nH]2)o1 (racemic)	
	0.005		0.127	COC(=O)c1csc2c1NC1=C(C(=O)CCC1)C2c1ccc(Sc2nc3ccccc3[nH]2)o1 (racemic)	
58	0.006	47		CCOC(=O)c1[nH]cc2c1NC1=C(C(=O)CCC1)C2c1ccc(Sc2nc3cccc(F)c3[nH]2)o1 (racemic)	IC50 (Cytochrome P450 3A4 [3]): 4.5 µM
55		58		CCOC(=O)c1[nH]cc2c1NC1=C(C(=O)CCC1)C2c1ccc(Sc2nc3cc(F)c(F)cc3[nH]2)o1 (racemic)	IC50 (Cytochrome P450 3A4 [3]): 8.4 µM
66		66		CCOC(=O)c1[nH]cc2c1NC1=C(C(=O)CCC1)C2c1ccc(Sc2nc3ccc(F)c(F)c3[nH]2)o1 (racemic)	IC50 (Cytochrome P450 3A4 [3]): 34 µM
85	0.007	68		CCOC(=O)c1[nH]cc2c1NC1=C(C(=O)CCC1)C2c1ccc(Sc2nc3cccc(Cl)c3[nH]2)o1 (racemic)	IC50 (Cytochrome P450 3A4 [3]): 0.05 µM
49		49		CCOC(=O)c1[nH]cc2c1NC1=C(C(=O)CCC1)C2c1ccc(Sc2nc3cccnc3[nH]2)o1 (racemic)	
	0.003			CCOC(=O)c1[nH]cc2c1NC1=C(C(=O)CNC1)C2c1ccc(Sc2nc3c(F)cccc3[nH]2)o1 (racemic)	
	0.18		4.6	CCOC(=O)c1[nH]cc2c1NC1=C(C(=O)CCC1)C2c1ccc(Sc2nc3ccccc3[nH]2)s1 (racemic)	
	0.007		9.7	CCOC(=O)c1[nH]cc2c1NC1=C(C(=O)CCC1)C2c1cccc(Sc2nc3ccccc3[nH]2)c1 (racemic)	
	1.1		> 10	CCOC(=O)c1[nH]cc2c1NC1=C(C(=O)CCC1)C2c1ccnc(Sc2nc3ccccc3[nH]2)c1 (racemic)	
			0.026	COC(=O)c1[nH]cc2c1NC1=C(C(=O)CCC1)C2c1ccc(Sc2nc3ccccc3[nH]2)o1 (single isomer, unassigned; (+))	
